Values of other authors, collected in patent US20070003621A1, “Dosage forms for movement disorder treatment” (Spherics, Inc., priority 2005, published 2007).

Settings: doses of 400 mg per day

For `C[C@@](Cc1ccc(O)c(O)c1)(NN)C(=O)O` [carbidopa], the adverse effects is listed as “fails to elicit adverse effects”.
